Experimental data as given in ChEMBL document CHEMBL3745599, “The anti-tumor activity and mechanism of alkaloids from Aconitum szechenyianum Gay” (Bioorg Med Chem Lett, 2016).
Calls of active or inactive are those of the source. No cut-off for these calls is given here.

Tests used:
[1] = target: T1, MAP kinase p38 (Homo sapiens) (UniProt O15264+Q15759+Q16539+P53778); assay: Activation of p38 in human A549 cells assessed as downregulation of cytochrome c expression in mitochondria by Western blot analysis
[2] = target: T1, MAP kinase p38 (Homo sapiens); assay: Activation of p38 in human A549 cells assessed as downregulation of procaspase-8 level by Western blot analysis; type: cell-based
A549 [3] = assay: Induction of apoptosis in human A549 cells assessed as change in cytoplasmic vacuole at 100 to 800 ug/ml after 24 hrs by inverted phase contrast microscopic analysis; type: functional, cell-based
A549 [4] = assay: Induction of apoptosis in human A549 cells assessed as nuclear fragmentation at 100 to 800 ug/ml after 24 hrs by Hoechst 33258 staining-based fluorescence microscopic analysis; type: functional, cell-based
[5] = target: T1, MAP kinase p38 (Homo sapiens); assay: Activation of p38 in human A549 cells assessed as upregulation of cleaved caspase-9 level by Western blot analysis; type: cell-based
[6] = Cytotoxicity against HEK293A cells assessed as cell viability at 1600 ug/ml after 44 hrs by MTT assay; type: cell-based; details: human, hek293-a
A549 [7] = assay: Induction of apoptosis in human A549 cells assessed as appearance of loosely arranged cells at 100 to 800 ug/ml after 24 hrs by inverted phase contrast microscopic analysis; type: functional, cell-based
A549 [8] = assay: Upregulation of phosphorylated p38 expression in human A549 cells by Western blot analysis; type: functional, cell-based
A549 [9] = assay: Upregulation of p38 expression in human A549 cells by Western blot analysis; type: functional, cell-based
[10] = target: T1, MAP kinase p38 (Homo sapiens); assay: Activation of p38 in human A549 cells assessed as upregulation of TNF-R1 expression by Western blot analysis; type: cell-based
A549 [11] = assay: Induction of apoptosis in human A549 cells assessed as cell shrinkage at 100 to 800 ug/ml after 24 hrs by inverted phase contrast microscopic analysis; type: functional, cell-based
A549 [12] = assay: Induction of apoptosis in human A549 cells assessed as loss in mitochondrial membrane potential after 24 hrs by JC-1 dye-based fluorescence microscopic analysis; type: functional, cell-based
[13] = target: T1, MAP kinase p38 (Homo sapiens); assay: Activation of p38 in human A549 cells assessed as increase in Bax to Bcl2 ratio by Western blot analysis; type: cell-based
HeLa = assay: Antiproliferative activity against human HeLa cells assessed as cell viability at 100 to 1600 ug/ml after 44 hrs by MTT assay; type: functional, cell-based
A549 [14] = assay: Induction of apoptosis in human A549 cells after 24 hrs by inverted phase contrast microscopic analysis; type: functional, cell-based
[15] = target: T1, MAP kinase p38 (Homo sapiens); assay: Activation of p38 in human A549 cells assessed as upregulation of DR5 expression by Western blot analysis; type: cell-based
[16] = target: T1, MAP kinase p38 (Homo sapiens); assay: Activation of p38 in human A549 cells assessed as upregulation of cytochrome c expression in cytosol by Western blot analysis; type: cell-based
[17] = target: T1, MAP kinase p38 (Homo sapiens); assay: Activation of p38 in human A549 cells assessed as upregulation of Bax expression by Western blot analysis; type: cell-based
[18] = target: T1, MAP kinase p38 (Homo sapiens); assay: Activation of p38 in human A549 cells assessed as downregulation of procaspase-3 level by Western blot analysis; type: cell-based
HepG2 = assay: Antiproliferative activity against human HepG2 cells assessed as cell viability at 100 to 1600 ug/ml after 44 hrs by MTT assay; type: functional, cell-based
A549 [19] = assay: Induction of apoptosis in human A549 cells assessed as condensed chromatin at 100 to 800 ug/ml after 24 hrs by Hoechst 33258 staining-based fluorescence microscopic analysis; type: functional, cell-based
[20] = Cytotoxicity against HEK293A cells assessed as cell viability at 100 to 800 ug/ml after 44 hrs by MTT assay; type: cell-based; details: human, hek293-a
A549 [21] = assay: Antiproliferative activity against human A549 cells assessed as cell viability at 100 to 1600 ug/ml after 44 hrs by MTT assay; type: functional, cell-based
A549 [22] = assay: Induction of apoptosis in human A549 cells assessed as change from fusiform shape to round shape cell at 100 to 800 ug/ml after 24 hrs by inverted phase contrast microscopic analysis; type: functional, cell-based
[23] = target: T1, MAP kinase p38 (Homo sapiens); assay: Activation of p38 in human A549 cells assessed as downregulation of Bcl2 expression at 100 to 800 ug/ml by Western blot analysis; type: cell-based

## CCN1C[C@@]2(COC)[C@H]3[C@@H](OC)[C@H]4C1[C@]3([C@@H](OC)C[C@H]2OC(C)=O)[C@@H]1C[C@@]2(O)[C@H](OC(=O)c3ccccc3)[C@@H]1[C@]4(OC(C)=O)[C@@H](O)[C@@H]2OC
[1]
  Activity: Dose-dependent effect
[2]
  Activity: Dose-dependent effect
A549 [3]
  Activity: Active
A549 [4]
  Activity: Active
[5]
  Activity: Active
[6]
  Activity: Toxic
A549 [7]
  Activity: Active
A549 [8]
  Activity: Dose-dependent effect
A549 [9]
  Activity: Dose-dependent effect
[10]
  Activity: Dose-dependent effect
A549 [11]
  Activity: Active
A549 [12]
  Activity: Dose-dependent effect
[13]
  Activity: Dose-dependent effect
HeLa
  Activity: Active
A549 [14]
  Activity: Dose-dependent effect
[15]
  Activity: Dose-dependent effect
[16]
  Activity: Dose-dependent effect
[17]
  Activity: Dose-dependent effect
[18]
  Activity: Dose-dependent effect
HepG2
  Activity: Active
A549 [19]
  Activity: Active
[20]
  Activity: Non-toxic
A549 [21]
  Activity: Active
A549 [22]
  Activity: Active
[23]
  Activity: Active

## C=C1[C@H]2C[C@@]3([C@@H]1O)[C@@H](CC2=O)[C@@]12C4[C@@H]3C[C@@H]1[C@@](C)(CC[C@@H]2O)CN4CC
[1]
  Activity: Dose-dependent effect
[2]
  Activity: Dose-dependent effect
A549 [3]
  Activity: Active
A549 [4]
  Activity: Active
[5]
  Activity: Active
[6]
  Activity: Toxic
A549 [7]
  Activity: Active
A549 [8]
  Activity: Dose-dependent effect
A549 [9]
  Activity: Dose-dependent effect
[10]
  Activity: Dose-dependent effect
A549 [11]
  Activity: Active
A549 [12]
  Activity: Dose-dependent effect
[13]
  Activity: Dose-dependent effect
HeLa
  Activity: Active
A549 [14]
  Activity: Dose-dependent effect
[15]
  Activity: Dose-dependent effect
[16]
  Activity: Dose-dependent effect
[17]
  Activity: Dose-dependent effect
[18]
  Activity: Dose-dependent effect
HepG2
  Activity: Active
A549 [19]
  Activity: Active
[20]
  Activity: Non-toxic
A549 [21]
  Activity: Active
A549 [22]
  Activity: Active
[23]
  Activity: Active

## CCN1C[C@]2(COC)[C@H](O)C[C@@H](OC)[C@@]34[C@@H]5C[C@@]6(O)[C@H](OC(=O)c7ccccc7)[C@@H]5[C@@](OC(C)=O)([C@@H]([C@H](OC)[C@H]23)[C@H]14)[C@@H](O)[C@@H]6OC
[1]
  Activity: Dose-dependent effect
[2]
  Activity: Dose-dependent effect
A549 [3]
  Activity: Active
A549 [4]
  Activity: Active
[5]
  Activity: Active
[6]
  Activity: Toxic
A549 [7]
  Activity: Active
A549 [8]
  Activity: Dose-dependent effect
A549 [9]
  Activity: Dose-dependent effect
[10]
  Activity: Dose-dependent effect
A549 [11]
  Activity: Active
A549 [12]
  Activity: Dose-dependent effect
[13]
  Activity: Dose-dependent effect
HeLa
  Activity: Active
A549 [14]
  Activity: Dose-dependent effect
[15]
  Activity: Dose-dependent effect
[16]
  Activity: Dose-dependent effect
[17]
  Activity: Dose-dependent effect
[18]
  Activity: Dose-dependent effect
HepG2
  Activity: Active
A549 [19]
  Activity: Active
[20]
  Activity: Non-toxic
A549 [21]
  Activity: Active
A549 [22]
  Activity: Active
[23]
  Activity: Active

## CCN1C[C@]2(COC)CC[C@H](OC)[C@]34C1[C@H]([C@H](OC)[C@H]23)[C@]1(OC(C)=O)[C@H]2[C@@H](OC(=O)c3ccccc3)[C@](O)(C[C@H]24)[C@@H](OC)[C@@H]1O
[1]
  Activity: Dose-dependent effect
[2]
  Activity: Dose-dependent effect
A549 [3]
  Activity: Active
A549 [4]
  Activity: Active
[5]
  Activity: Active
[6]
  Activity: Toxic
A549 [7]
  Activity: Active
A549 [8]
  Activity: Dose-dependent effect
A549 [9]
  Activity: Dose-dependent effect
[10]
  Activity: Dose-dependent effect
A549 [11]
  Activity: Active
A549 [12]
  Activity: Dose-dependent effect
[13]
  Activity: Dose-dependent effect
HeLa
  Activity: Active
A549 [14]
  Activity: Dose-dependent effect
[15]
  Activity: Dose-dependent effect
[16]
  Activity: Dose-dependent effect
[17]
  Activity: Dose-dependent effect
[18]
  Activity: Dose-dependent effect
HepG2
  Activity: Active
A549 [19]
  Activity: Active
[20]
  Activity: Non-toxic
A549 [21]
  Activity: Active
A549 [22]
  Activity: Active
[23]
  Activity: Active
